We go through twelve compounds from PubChem BioAssay AID226 (DTP/NCI, 2004).

Structures are written as SMILES. Several values for one entry are separate records, joined by “and”; a condition that tells them apart may be missing. Identical values can stand only once. Toxic doses and inconclusive results are not listed.

This experiment concerns B6C3F1 mice, intracerebral ependymoblastoma, median survival T/C. The experiment in a line: NCI In Vivo Anticancer Drug Screen. Data for tumor model Ependymoblastoma (intracerebral) in B6C3F1 mice. The conditions noted are these: endpoint: median survival time, higher = longer survival. The procedure: The antitumor activity of compounds was measured in mice bearing transplantable tumors. Survival or tumor size were measured and the results are expressed as the measurement made in the treated group (T) divided by the measurement made in the vehicle treated control group (C). The tumor model used in this assay is Ependymoblastoma (intracerebral) in B6C3F1 mice

Where [1] appears, read: dose: 1.0 mg/kg/injection, schedule: Q01DX005 (ip), vehicle: Klucel (hydroxypropylcellulose) (HPC).
Setting [2] is: dose: 2.0 mg/kg/injection, schedule: Q01DX001 (ip), vehicle: Klucel (hydroxypropylcellulose) (HPC).
Where [3] appears, read: dose: 2.0 mg/kg/injection, schedule: Q01DX005 (ip), vehicle: Klucel (hydroxypropylcellulose) (HPC).
Setting [4] is: dose: 4.0 mg/kg/injection, schedule: Q01DX001 (ip), vehicle: Klucel (hydroxypropylcellulose) (HPC).
Setting [5] is: dose: 8.0 mg/kg/injection, schedule: Q01DX001 (ip), vehicle: Klucel (hydroxypropylcellulose) (HPC).
Setting [6] is: dose: 16.0 mg/kg/injection, schedule: Q01DX001 (ip), vehicle: Klucel (hydroxypropylcellulose) (HPC).
[7] abbreviates: dose: 2.0 mg/kg/injection, schedule: Q01DX005 (ip), vehicle: saline.
[8] abbreviates: dose: 4.0 mg/kg/injection, schedule: Q01DX005 (ip), vehicle: saline.
Setting [9] is: dose: 8.0 mg/kg/injection, schedule: Q01DX005 (ip), vehicle: saline.
Setting [10] is: dose: 32.0 mg/kg/injection, schedule: Q01DX005 (ip), vehicle: saline with Tween-80.
Where [11] appears, read: dose: 128.0 mg/kg/injection, schedule: Q01DX005 (ip), vehicle: saline with Tween-80.
[12] abbreviates: dose: 4.0 mg/kg/injection, schedule: Q01DX005 (ip), vehicle: Klucel (hydroxypropylcellulose) (HPC).

In the case of `O=CC(NC(=O)N(CCCl)N=O)C(O)C(O)C(O)CO` (stereo not given), the T/C was 97 % of control and 99 % of control and 108 % of control (dose: 0.12 mg/kg/injection, schedule: Q01DX005 (ip), vehicle: saline); 91 % of control and 93 % of control (dose: 0.13 mg/kg/injection, schedule: Q01DX005 (ip), vehicle: saline); 93 % of control and 104 % of control and 107 % of control (dose: 1.0 mg/kg/injection, schedule: Q01DX001 (ip), vehicle: Klucel (hydroxypropylcellulose) (HPC)); 108 % of control under setting [1]; 99 % of control and 103 % of control and 108 % of control under setting [2]; 119 % of control under setting [3]. For the same compound, the T/C is, setting by setting: (dose: 3.13 mg/kg/injection, schedule: Q01DX001 (ip), vehicle: saline) 115 % of control; under setting [4], 100 % of control and 107 % of control and 108 % of control; (dose: 4.0 mg/kg/injection, schedule: Q01DX009 (ip), vehicle: saline) 195 % of control; (dose: 6.25 mg/kg/injection, schedule: Q01DX001 (ip), vehicle: saline) 122 % of control; under setting [5], 103 % of control and 110 % of control and 113 % of control; under setting [6], 111 % of control and 115 % of control and 119 % of control. In addition, where the note is “dose: 25.0 mg/kg/injection, schedule: Q01DX001 (ip), vehicle: saline”, the T/C is 157 % of control.
Turning to `COc1cccc2c1C(=O)c1c(O)c3c(c(O)c1C2=O)C[C@@](O)(C(=O)CO)C[C@@H]3OC1CC(N)C(O)C(C)O1` (stereo not given in full), the T/C (dose: 0.06 mg/kg/injection, schedule: Q03HX008 (ip), vehicle: saline) is 104 % of control; the T/C (dose: 0.12 mg/kg/injection, schedule: Q01DX005 (ip), vehicle: water) was 96 % of control; the T/C (dose: 0.12 mg/kg/injection, schedule: Q03HX008 (ip), vehicle: saline) was 100 % of control and 113 % of control; the T/C (dose: 0.25 mg/kg/injection, schedule: Q01DX005 (ip), vehicle: saline) was 94 % of control and 113 % of control and 114 % of control; the T/C (dose: 0.25 mg/kg/injection, schedule: Q01DX005 (ip), vehicle: water) was 102 % of control; the T/C (dose: 0.25 mg/kg/injection, schedule: Q03HX008 (ip), vehicle: saline) was 106 % of control and 120 % of control. The T/C reads like this: (dose: 0.5 mg/kg/injection, schedule: Q01DX005 (ip), vehicle: saline) 103 % of control and 105 % of control and 114 % of control; (dose: 0.5 mg/kg/injection, schedule: Q01DX005 (ip), vehicle: suspension in saline) 103 % of control; (dose: 0.5 mg/kg/injection, schedule: Q01DX005 (ip), vehicle: water) 92 % of control and 113 % of control; (dose: 0.5 mg/kg/injection, schedule: Q03HX008 (ip), vehicle: saline) 114 % of control; (dose: 1.0 mg/kg/injection, schedule: Q01DX005 (ip), vehicle: saline) 109 % of control and 110 % of control and 116 % of control; (dose: 1.0 mg/kg/injection, schedule: Q01DX005 (ip), vehicle: suspension in saline) 108 % of control. The T/C reads like this: (dose: 1.0 mg/kg/injection, schedule: Q01DX005 (ip), vehicle: water) 102 % of control and 116 % of control; under setting [7], 116 % of control and 118 % of control; (dose: 2.0 mg/kg/injection, schedule: Q01DX005 (ip), vehicle: suspension in saline) 121 % of control; (dose: 2.0 mg/kg/injection, schedule: Q01DX005 (ip), vehicle: water) 107 % of control and 113 % of control; (dose: 4.0 mg/kg/injection, schedule: Q01DX001 (oral), vehicle: saline) 100 % of control; under setting [8], 100 % of control and 118 % of control and 86 % of control. The T/C was 96 % of control (dose: 8.0 mg/kg/injection, schedule: Q01DX001 (oral), vehicle: saline); 103 % of control (dose: 16.0 mg/kg/injection, schedule: Q01DX001 (oral), vehicle: saline); 89 % of control (dose: 32.0 mg/kg/injection, schedule: Q01DX001 (oral), vehicle: saline).
Consider `COc1cccc2c1C(=O)c1c(O)c3c(c(O)c1C2=O)C[C@@](O)(/C(C)=N/NC(=O)c1ccccc1)C[C@@H]3OC1CC(N)C(O)C(C)O1` (stereo not given in full), for which the T/C is 97 % of control under setting [7], 95 % of control under setting [8] and 98 % of control under setting [9].
`C#CCN(C)/N=N/c1nc[nH]c1C(N)=O`: the T/C under setting [10] is 150 % of control and the T/C under setting [11] was 157 % of control.
As for `NS(=O)(=O)c1cc2c(cc1Cl)NC=NS2(=O)=O`, the T/C (dose: 37.5 mg/kg/injection, schedule: Q01DX005 (ip), vehicle: Klucel (hydroxypropylcellulose) (HPC)) was 109 % of control; the T/C (dose: 75.0 mg/kg/injection, schedule: Q01DX005 (ip), vehicle: Klucel (hydroxypropylcellulose) (HPC)) was 96 % of control; the T/C (dose: 150.0 mg/kg/injection, schedule: Q01DX005 (ip), vehicle: Klucel (hydroxypropylcellulose) (HPC)) was 90 % of control; the T/C (dose: 300.0 mg/kg/injection, schedule: Q01DX005 (ip), vehicle: Klucel (hydroxypropylcellulose) (HPC)) is 107 % of control; the T/C (dose: 600.0 mg/kg/injection, schedule: Q01DX005 (ip), vehicle: Klucel (hydroxypropylcellulose) (HPC)) was 102 % of control.
Consider `C[CH2][Ge]1([CH2]C)[CH2]CC2(CCN(CCCN(C)C)C2)C[CH2]1`, for which the T/C under setting [9] was 94 % of control and 103 % of control; the T/C (dose: 16.0 mg/kg/injection, schedule: Q01DX005 (ip), vehicle: saline) was 96 % of control and 104 % of control and 107 % of control.
Turning to `CCC(C)N(C)/N=N/c1nc[nH]c1C(N)=O` (stereo not given), the T/C is, setting by setting: under setting [10], 151 % of control; (dose: 64.0 mg/kg/injection, schedule: Q01DX005 (ip), vehicle: saline with Tween-80) 153 % of control; under setting [11], 153 % of control.
As for `COC12C(COC(N)=O)C3=C(C(=O)C(C)=C(N)C3=O)N1CC1C2N1C` (stereo not given), the T/C was 105 % of control and 110 % of control under setting [3]; 112 % of control and 114 % of control under setting [12].
Regarding `CC([NH-])C[NH-].[Cl][Pt+2][Cl]` (stereo not given), where the note is “dose: 2.0 mg/kg/injection, schedule: Q01DX005 (ip), vehicle: dextrose”, the T/C was 94 % of control.
On to `NC(=O)c1ncn(C2OC(CO)C(O)C2O)c1O` (stereo not given), for which the T/C (dose: 25.0 mg/kg/injection, schedule: Q01DX005 (ip), vehicle: Klucel (hydroxypropylcellulose) (HPC)) was 92 % of control; the T/C (dose: 50.0 mg/kg/injection, schedule: Q01DX005 (ip), vehicle: Klucel (hydroxypropylcellulose) (HPC)) was 101 % of control and 115 % of control; the T/C (dose: 100.0 mg/kg/injection, schedule: Q01DX005 (ip), vehicle: Klucel (hydroxypropylcellulose) (HPC)) was 96 % of control and 101 % of control; the T/C (dose: 200.0 mg/kg/injection, schedule: Q01DX005 (ip), vehicle: Klucel (hydroxypropylcellulose) (HPC)) is 105 % of control and 115 % of control; the T/C (dose: 400.0 mg/kg/injection, schedule: Q01DX005 (ip), vehicle: Klucel (hydroxypropylcellulose) (HPC)) was 111 % of control.
As for `O=C(O)CCCc1ccc(N(CCCl)CCCl)cc1`, the T/C (dose: 0.5 mg/kg/injection, schedule: Q01DX005 (ip), vehicle: Klucel (hydroxypropylcellulose) (HPC)) was 114 % of control; the T/C under setting [1] is 114 % of control; the T/C (dose: 1.0 mg/kg/injection, schedule: Q01DX005 (ip), vehicle: saline with Tween-80) is 120 % of control; the T/C under setting [2] is 103 % of control and 104 % of control (2×); the T/C under setting [3] is 113 % of control; the T/C under setting [4] was 97 % of control and 104 % of control and 105 % of control. The T/C under setting [12] was 105 % of control; the T/C under setting [5] was 100 % of control and 101 % of control and 108 % of control; the T/C (dose: 8.0 mg/kg/injection, schedule: Q01DX005 (ip), vehicle: Klucel (hydroxypropylcellulose) (HPC)) was 113 % of control; the T/C (dose: 8.0 mg/kg/injection, schedule: Q01DX005 (ip), vehicle: saline with Tween-80) was 153 % of control; the T/C under setting [6] was 104 % of control and 108 % of control and 110 % of control; the T/C (dose: 16.0 mg/kg/injection, schedule: Q01DX005 (ip), vehicle: saline with Tween-80) is 180 % of control. Further, the T/C (dose: 32.0 mg/kg/injection, schedule: Q01DX001 (ip), vehicle: Klucel (hydroxypropylcellulose) (HPC)) was 114 % of control and 117 % of control and 121 % of control.
In the case of `CN=S(=O)(OCCCCCOS(=O)(=NC)c1ccccc1)c1ccccc1` (stereo not given), the T/C is 110 % of control (dose: 6.25 mg/kg/injection, schedule: Q01DX005 (ip), vehicle: saline with Tween-80); 100 % of control (dose: 12.5 mg/kg/injection, schedule: Q01DX005 (ip), vehicle: saline with Tween-80); 95 % of control and 106 % of control (dose: 25.0 mg/kg/injection, schedule: Q01DX005 (ip), vehicle: saline with Tween-80); 111 % of control and 112 % of control (dose: 50.0 mg/kg/injection, schedule: Q01DX005 (ip), vehicle: saline with Tween-80); 101 % of control and 123 % of control (dose: 100.0 mg/kg/injection, schedule: Q01DX005 (ip), vehicle: saline with Tween-80).
